Reference: US6153591A, “Dipeptide caspase inhibitors and the use thereof” (Cytovia, Inc., priority 1999, dated 2000)
Square brackets hold non-standard residues; d marks the D form. Peptide text beside a SMILES is read from it. * marks the point of attachment. ξ: configuration not given here. 1Nal = N[C@@H](Cc1cccc2ccccc12)C(=O)O; ξPhg = NC(C(=O)O)c1ccccc1; Cbz = O=C(OCc1ccccc1)*; CH2F = FC*

Tests used:
[1] = system: lethality in mice caused by an anti-Fas antibody (clone Jo2); experiment: Protection against lethality in mice caused by anti-Fas antibody (clone Jo2); type: in vivo; settings: Swiss Webster female mice, 6 μg Fas antibody
Procedure: Cbz-Phg-Asp-fmk was examined as a protectant against lethality in mice caused by an anti-Fas antibody (clone Jo2) (Rodriguez, I. et al J. Exp. Med 184:2067-2072 (1996). Swiss Webster female mice weighing between 16-20 g were used. Food and water were given ad libium. Purified hamster anti-mouse Fas monoclonal antibody (clone Jo2, commercially available) 1 mg/ml in phosphate buffered saline was dosed i.v. at 6 μg/mouse (80 μl).
Cbz-Phg-Asp-fmk was dissolved in 0.05M Tris base adjusted to pH 8.5 with HCl. The concentration of Cbz-Phg-Asp-fmk was 1-10 mg/ml dosed as a single bolus i.v. in a volume of 1-5 μl/g body weight. Five groups of mice were injected with 6 μg of Fas antibody per mouse. 5 minutes following the antibody injection the mice received either Tris vehicle control or 1, 2.5, 10 or 50 mg/kg of Cbz-Phg-Asp-fmk. The survival of the mice was followed throughout 24 hours.

[2] = biological target: T1, caspase-3 (CPP32) (Homo sapiens, UniProt P42574); experiment: Fluorometric enzyme assay of caspase-3 inhibition; type: biochemical; settings: recombinant caspase-3, substrate Asp-Glu-Val-Asp-AMC 5 μM, 30° C., 30 minutes
T1 construct: made in house; host or cells: Sf9 insect cells, baculovirus vector
T1 sequence (P42574 29-175 limits assumed): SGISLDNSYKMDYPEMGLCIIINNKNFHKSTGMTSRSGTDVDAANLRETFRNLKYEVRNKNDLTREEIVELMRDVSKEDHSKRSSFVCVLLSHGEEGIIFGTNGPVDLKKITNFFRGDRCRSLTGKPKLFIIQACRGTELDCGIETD
T1 sequence (P42574 176-277 limits assumed): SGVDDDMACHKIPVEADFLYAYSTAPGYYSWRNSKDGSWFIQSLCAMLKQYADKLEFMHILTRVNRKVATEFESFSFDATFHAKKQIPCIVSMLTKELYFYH
Procedure: The activity of Cbz-Phg-Asp-fmk as an inhibitor of caspase-3 (CPP32) was measured in a fluorometric enzyme assay. Recombinant caspase-3 protein was prepared by expressing DNA clones encoding these enzymes in an insect host cell (sf9 cells) using baculovirus as the vector. See, Webb, N.R. et al., "Expression of proteins using recombinant Baculovirus," Techniques 2:173-188 (1990). Enzyme activity was measured using synthetic peptide substrates attached to a fluorogenic leaving group. Cleavage of the synthetic substrate by the enzyme results in a fluorescent signal which is read in a spectrofluorometer or in a fluorometric microtiter plate reader.
Caspase-3 activity was measured using the following buffer conditions: 100 mM HEPES pH 7.5, with 10% sucrose, 1% CHAPS. The peptide substrate for caspase-3 is Asp-Glu-Val-Asp-AMC (SEQ ID NO:2). […] The assay for enzyme activity was typically carried out at 30° C. for 30 minutes.

Compound	IC50 [2]	other results
O=C(O)C[C@H](NC(=O)C(NC(=O)OCc1ccccc1)c1ccccc1)C(=O)CF (stereo partly drawn) [Cbz-Phg-Asp-fmk] (Cbz-[ξPhg]-Asp-CH2F)	–	Percent survival ([1]; 1 mg/kg i.v., 1 h): 100%; Percent survival ([1]; 1 mg/kg i.v., 3 h): 14.3%; Percent survival ([1]; 1 mg/kg i.v., 24 h): 0%; Percent survival ([1]; 2.5 mg/kg i.v., 1 h): 100%; Percent survival ([1]; 2.5 mg/kg i.v., 3 h): 28.6%; Percent survival ([1]; 2.5 mg/kg i.v., 24 h): 0%; Percent survival ([1]; 10 mg/kg i.v., 1 h): 100%; Percent survival ([1]; 10 mg/kg i.v., 3 h): 42.9%; Percent survival ([1]; 10 mg/kg i.v., 24 h): 14.3%; Percent survival ([1]; 50 mg/kg i.v., 1 h): 100%; Percent survival ([1]; 50 mg/kg i.v., 3 h): 100%; Percent survival ([1]; 50 mg/kg i.v., 24 h): 42.9%
CC(C)C(CNC(=O)OCc1ccccc1)C(=O)N[C@@H](CC(=O)O)C(=O)CF (stereo partly drawn) [Z-(2-i-Pr-- --Ala)--Asp--fmk, Z-(2-i-Pr-β-Ala)-Asp-fmk]	1400 nM	–
O=C(O)CC(NC(=O)C(CF)NC(=O)OCc1ccccc1)C(=O)CF (stereo not shown) [Z-(3-F-Ala)--Asp--fmk, Z-(3-F-Ala)-Asp-fmk]	900 nM	–
CN(C)CC(NC(=O)OCc1ccccc1)C(=O)NC(CC(=O)O)C(=O)CF (stereo not shown) [Z-(3-Me2 N--Ala]--Asp--fmk, Z-(3-Me2 N-Ala)-Asp-fmk]	9600 nM	–
O=C(O)C[C@H](NC(=O)CC(NC(=O)OCc1ccccc1)c1ccccc1)C(=O)CF (stereo partly drawn) [Z-(3-Ph-- --Ala)--Asp--fmk, Z-(3-Ph-β-Ala)-Asp-fmk]	4700 nM	–
O=C(O)CC(NC(=O)C(NC(=O)OCc1ccccc1)c1ccc(C(F)(F)F)cc1)C(=O)CF (stereo not shown) [Z-(4-CF3 --Phg)--Asp--fmk, Z-(4-CF3 -Phg)-Asp-fmk]	1200 nM	–
O=C(O)CC(NC(=O)C(NC(=O)OCc1ccccc1)c1ccc(F)cc1)C(=O)CF (stereo not shown) [Z-(4-F-Phg)--Asp--fmk, Z-(4-F-Phg)-Asp-fmk]	1200 nM	–
O=C(O)C[C@H](NC(=O)[C@H](Cc1cccc2ccccc12)NC(=O)OCc1ccccc1)C(=O)CF [Z-[(L)-1-Nal]--Asp--fmk, Z-[(L)-1-Nal]-Asp-fmk] (Cbz-[1Nal]-Asp-CH2F)	1000 nM	–
O=C(O)CC(NC(=O)C(CCl)NC(=O)OCc1ccccc1)C(=O)CF (stereo not shown) [Z-[(L)-3-Cl--Ala]--Asp--fmk, Z-[(L)-3-Cl-Ala]-Asp-fmk]	1000 nM	–

Continued by falling IC50 [2], values first:

IC50 [2]	Compound	other results
600 nM	CC(C(NC(=O)OCc1ccccc1)C(=O)NC(CC(=O)O)C(=O)CF)C(F)(F)F (stereo not shown) [Z--(F3 --Val)--Asp--fmk, Z-(F3 -Val)-Asp-fmk]	–
530 nM	N#CCC(NC(=O)OCc1ccccc1)C(=O)NC(CC(=O)O)C(=O)CF (stereo not shown) [Z-[(L)-3-CN--Ala]--Asp--fmk, Z-[(L)-3-CN-Ala]-Asp-fmk]	–
510 nM	O=C(O)CC(NC(=O)C(NC(=O)OCc1ccccc1)c1cccs1)C(=O)CF (stereo not shown) [Z-[(L)-2-Thg]--Asp--fmk, Z-[(L)-2-Thg]-Asp-fmk]	–
480 nM	Z-[3-F-3-Me-Ala]-Asp-fmk [Z-(3-F-3-Me--Ala)--Asp--fmk]	–
440 nM	O=C(O)CC(NC(=O)C(NC(=O)OCc1ccccc1)c1ccco1)C(=O)CF (stereo not shown) [Z-(2-Fug)--Asp--fmk, Z-(2-Fug)-Asp-fmk]	–
440 nM	CC(C)(F)[C@H](NC(=O)OCc1ccccc1)C(=O)N[C@@H](CC(=O)O)C(=O)CF [Z-(3-F-Val)--Asp--fmk, Z-(3-F-Val)-Asp-fmk]	–
360 nM	O=C(O)CC(NC(=O)C(NC(=O)OCc1ccccc1)c1ccccc1F)C(=O)CF (stereo not shown) [Z-(2-F--Phg)--Asp--fmk, Z-(2-F-Phg)-Asp-fmk]	–
340 nM	O=C(O)CC(NC(=O)C(NC(=O)OCc1ccccc1)c1ccsc1)C(=O)CF (stereo not shown) [Z-(3-Thg)--Asp--fmk, Z-(3-Thg)-Asp-fmk]	–
280 nM	O=C(O)C[C@H](NC(=O)C(NC(=O)OCc1ccccc1)c1cccs1)C(=O)CF (stereo partly shown) [Z-(2-Thg)--Asp--fmk, Z-(2-Thg)-Asp-fmk]	–
270 nM	O=C(O)CC(NC(=O)C(NC(=O)OCc1ccccc1)c1ccc(Cl)cc1)C(=O)CF (stereo not shown) [Z-(4-Cl--Phg)--Asp--fmk, Z-(4-Cl-Phg)-Asp-fmk]	–
260 nM	O=C(O)CC(NC(=O)C(NC(=O)OCc1ccccc1)c1ccsc1)C(=O)CF (stereo not shown) [Z-[(L)-3-Thg]--Asp--fmk] [Z-[(L)-3-Thg]-Asp-fmk]	–
